# Results reported in publication PMC12380353, “MK-8527 is a novel inhibitor of HIV-1 reverse transcriptase translocation with potential for extended-duration dosing” (PLOS Biology, 2025).
# Values joined by “and” are separate entries in the source; they are usually repeats but may differ in a detail not shown here. Equal entries are not always repeated. Where two headings read alike, the source gives them in different places.
# Assays:
# HIV RT [1] = biological target: T1, HIV RT (Human immunodeficiency virus type 1 group M subtype B, UniProt P04585); assay: HIV-RT primer extension assay (chain termination); assay type: biochemical; conditions: 1 µM each dNTP
# T1 construct: HIV RT (final concentration, 1,200 nM)
# Method: The reaction protocol was adapted from previous work. Primers and template used for this assay are described in Fig 8A.
# All reagent stocks were in a base assay buffer consisting of 50 mM Tris pH 7.5 and 50 mM NaCl in nuclease-free water. […] Samples were then heated to 95 °C for 10 min prior to storage at −20 °C until being resolved by polyacrylamide gel electrophoresis with 7 M urea.
# HIV RT [2] = biological target: T1, HIV RT; assay: Iron footprinting assay of RT translocation state; assay type: biochemical
# Method: The translocation state of RT was assessed with a site-specific iron footprinting assay adapted from previous work. Primer and template used for this assay are described in Fig 7A. The presence of Fe^2+ ions in the reaction generated hydroxyl radicals that cleaved the DNA template in a site-specific manner at the nucleotide closest to the RNase H active site. In addition to an RT inhibitor in the reaction, dTTP, the subsequent dNTP, was provided in dose titration to force the translocation of the 3′-primer terminus from the pre-translocation N-site to the post-translocation P-site.
# (final concentration, 1 µM), or ddATP (final concentration, 5 µM), Td43/Pd30 pre-annealed primer and template (final concentration, 200 nM based on Cy3-labeled Td43 concentration), and dTTP titrated at various concentrations. All reagent stocks were in a base assay buffer consisting of 120 mM Tris pH 7.5, 20 mM NaCl, and 6 mM MgCl2 in nuclease-free water. […] The reaction was then heated to 37 °C for 5 min before quenching 1:1 with gel-loading dye followed by heating at 95 °C for 10 min. Samples were stored at −20 °C until being resolved by polyacrylamide gel electrophoresis with 7 M urea.
# HIV-1IIIB = assay: Cytoprotection assay in CEM-SS cells, HIV-1; assay type: cell-based; conditions: Human immunodeficiency virus 1, 144 h, 6 days, read-out: Antiviral potency as IC50, HIV-1 – CEM-SS cells
# Method: The antiviral activity of MK-8527 against HIV-1 and HIV-2 was determined in a cytoprotection assay in CEM-SS cells at ImQuest BioSciences (Fredrick, MD, USA). Briefly, CEM-SS cells (National Institute of Health AIDS Research and Reference Reagent Program) were passaged in RPMI 1640 supplemented with 10% heat-inactivated FBS, 2 mM L-glutamine, 100 U/mL penicillin and 100 µg/mL streptomycin prior to use in the antiviral assay. On the day preceding the assay, the cells were split 1:2 to ensure they were in an exponential growth phase at the time of infection. The cells were resuspended at 2.5 × 10^3 cells per well in cell culture medium and added to the drug-containing microtiter plates at 50 µL per well. MK-8527 was tested in triplicate for each experiment, with 12 test concentrations added at 100 µL per well.
# Lymphocyte-tropic virus strains HIV-1IIIB or HIV-2ROD (NIH AIDS Research and Reference Reagent Program) were diluted into tissue culture medium such that the amount of virus added to each well in a volume of […] corresponded to the amount determined to yield 85% to 95% cell killing in the untreated virus control wells at 6–7 days. Virus was added immediately after cells were added to the 96-well microtiter plates.
# The IC50 for MK-8527 antiviral activity was determined using 4-parameter curve fit calculations.
# [3] = tested on: panel of unrelated viruses; conditions: all other viruses of the panel, up to highest concentration tested, 50 µM
# HIV-1 subtypes = conditions: for Fold-Change in IC50 vs CNDO control virus: listed as MK-8527
# Method: Compounds were evaluated for antiviral activity against a panel of clinical isolates representing multiple HIV-1 subtypes at Monogram Biosciences (South San Francisco, CA, USA). The isolates were selected based on an absence of resistance-associated mutations in RT and each was constructed as a pooled resistance test vector designed to preserve the quasispecies present in the initial clinical isolate.
# HIV-1 = assay: Multicycle antiviral assay in MT4-GFP cells; assay type: cell-based; conditions: 10% NHS
# Method: Compounds were evaluated for their ability to prevent HIV-1 infection in MT4-GFP cells as described in Diamond, and colleagues. HIV-1 replication was monitored using the MT4-gag-GFP clone D3, and MT4 cells with a GFP reporter gene, the expression of which is dependent on the HIV-1 expressed proteins tat and rev. […] Proviral variants used for these studies were generated by site-directed mutagenesis in the WT R8 proviral plasmid. Virus was produced by transfection in 293T cells.
# Briefly, MT4-GFP cells were cultured overnight with the appropriate HIV-1 variant at an approximate multiplicity of infection of 0.01. After approximately 19 h of infection, the cells were washed and resuspended in assay media containing 10% normal human serum (NHS) before being added to 384-well compound plates containing 10-point serial 3-fold dilutions of compound. Controls included no inhibitor (dimethyl sulfoxide [DMSO] only) and a combination of 3 antiviral agents, efavirenz, indinavir, and an integrase strand transfer inhibitor, L-002254051, at final concentrations of 4 µM each. The infected or treated cells were cultured at 37 °C, 5% CO2, and 90% humidity until evaluation of infection was conducted at approximately 48 and 72 h post-infection by counting the number of GFP cells in each well using an Acumen eX3 scanner (SPT Labtech; Melbourn, UK). The reproductive ratio, R, was calculated by dividing the number of infected cells at 72 h by the number at 48 h post-infection. The percentage inhibition caused by a test compound was calculated by the following formula:
# inhibition = [1−(Rtest compound − Rpositive control)]/(RDMSO only − Rpositive control) × 100%\]
# The dose–response curves of each test compound were plotted as percentage inhibition versus the test concentration.
smiles,measurement,setting,value
C#C[C@]1(COP(=O)(O)OP(=O)(O)OP(=O)(O)O)O[C@@H](n2ccc3c(N)nc(Cl)nc32)C[C@@H]1O [MK-8527-TP],Chain termination mechanism (ICT/DCT),HIV RT [1],both ICT and DCT occurred
same,Translocation state of RT,"HIV RT [2]; 1 µM MK-8527-TP or ISL-TP, 5 µM ddATP, absence or presence of dTTP",remained in a pre-translocation (−18) state
same,dTTP concentration above which post-translocation state products (−17) began accumulating,HIV RT [2]; 1 µM inhibitor,> 6.2 µM
"C#C[C@]1(CO)O[C@@H](n2ccc3c(N)nc(Cl)nc32)C[C@@H]1O [Compound 12, (2R,3S,5R)-5-(4-amino-2-chloro-7H-pyrrolo[2,3-d]pyrimidin-7-yl)-2-ethynyl-2-(hydroxymethyl)tetrahydrofuran-3-ol]",IC50,HIV-1IIIB,0.14 nM
same,Antiviral activity or cytotoxicity,[3],did not display antiviral activity or cytotoxicity
same,Geometric Mean fold-change,HIV-1 subtypes; WT Subtype A,1.0
same,Geometric Mean fold-change,HIV-1 subtypes; WT Subtype A1,0.9
same,Fold-Change in IC50 vs CNDO control virus,HIV-1 subtypes; WT Subtype A1 clinical isolates,0.96 and 0.93 and 0.73
same,Geometric Mean fold-change,HIV-1 subtypes; WT Subtype AE,0.6
same,Geometric Mean fold-change,HIV-1 subtypes; WT Subtype AG,1.0
same,Geometric Mean fold-change,HIV-1 subtypes; WT Subtype B,0.9
same,Geometric Mean fold-change,HIV-1 subtypes; WT Subtype BF,0.8
same,Geometric Mean fold-change,HIV-1 subtypes; WT Subtype C,1.0
same,Geometric Mean fold-change,HIV-1 subtypes; WT Subtype D,0.7
same,Geometric Mean fold-change,HIV-1 subtypes; WT Subtype F1,0.8
same,Geometric Mean fold-change,HIV-1 subtypes; WT Subtype G,0.752
same,Geometric Mean fold-change,HIV-1 subtypes; WT Subtype H,0.55
same,Fold-Change in IC50 vs CNDO control virus,HIV-1 subtypes; WT Subtype H clinical isolates,0.72 and 0.42
same,IC50,"HIV-1; Human immunodeficiency virus 1, WT HIV-1, multicycle assay",3.4 nM
same,MT4-GFP IC50,"HIV-1; WT HIV-1, multicycle assay",single-digit nanomolar potency
same,IC50,"HIV-1; WT HIV-1, multicycle assay, listed as MK-8527",3.37 ± 1 nM
